pIC50: −log10 of the molar value.
Experiments:
[1] = Metabolic stability evaluation in human liver microsomes; type: in vitro ADME; conditions: human liver microsome
Experimental: Experiments in microsomes: Human liver microsomes: 0.5 mg/mL, Xenotech; Coenzyme (NADPH/NADH): 1 mM, Sigma Life Science; Magnesium chloride: 5 mM, 100 mM phosphate buffer (pH 7.4).
Preparation of stock solution: Powder of the example compound was accurately weighed and dissolved in DMSO to 5 mM.
Preparation of phosphate buffer (100 mM, pH7.4): A pre-formulated 0.5M potassium dihydrogen phosphate (150 mL) was mixed with 0.5M dibasic potassium phosphate (700 mL). The pH of the mixture was adjusted to 7.4 with 0.5M dibasic potassium phosphate solution. The mixture was diluted 5-fold with ultrapure water before use, and magnesium chloride was added to obtain a phosphate buffer (100 mM) containing 100 mM potassium phosphate, 3.3 mM magnesium chloride, pH 7.4.
A NADPH regeneration system solution (containing 6.5 mM NADP, 16.5 mM G-6-P, 3 U/mL G-6-P D, 3.3 mM magnesium chloride) was prepared and placed on wet ice prior to use.
Preparation of stop solution: acetonitrile solution containing 50 ng/mL propranolol hydrochloride and 200 ng/mL tolbutamide (internal standard). 25057.5 μL of phosphate buffer (pH 7.4) was taken into a 50 mL centrifuge tube, to which 812.5 μL human liver microsomes were added, and mixed to obtain a liver microsome dilution solution with a protein concentration of 0.625 mg/mL. 25057.5 μL of phosphate buffer (pH 7.4) was taken into a 50 mL centrifuge tube, to which 812.5 μL SD rat liver microsomes were added, and mixed to obtain a liver microsome dilution solution with a protein concentration of 0.625 mg/mL.
Incubation of the samples: The stock solution of the respective compound was respectively diluted to 0.25 mM with an aqueous solution containing 70% acetonitrile, and used as a working solution, ready for use. 398 μL of the dilution solution of human liver microsomes or rat liver microsome were added to a 96-well incubation plate (N=2), respectively, and 2 μL of 0.25 mM working solution was added and mixed.
Metabolic stability assay: 300 μL of pre-chilled stop solution was added to each well of a 96-well deep well plate and placed on ice as a stop plate. The 96 well incubation plate and NADPH regeneration system were placed in a 37° C. water bath box, shaken at 100 rpm and pre-incubated for 5 min. 80 μL of incubation solution was taken out from each well of the incubation plate and added to the stop plate, mixed, and replenished with 20 μL of NADPH regeneration system solution as a 0-min sample. 80 μL of NADPH regeneration system solution was added to each well of the incubation plate to start the reaction and start counting. […] Separately, 100 μL of the reaction solution was taken at 10, 30, and 90 min reaction, respectively, added to a stop plate, and vortexed for 3 minutes to terminate the reaction. The stop plate was centrifuged at 5000×g at 4° C. for 4 min. 100 μL of the supernatant was added to a 96-well plate to which 100 μL of distilled water was previously added, mixed, and analyzed by LC-MS/MS.
Data analysis: The peak areas of the corresponding compound and internal standard were detected by LC-MS/MS system, and the ratio of the peak area of the compound to the internal standard was calculated.

Human CYP17 [2] = target: T1, Human CYP17 (Homo sapiens, UniProt P05093); test: CYP17 lyase assay; type: biochemical; set-up: made in house; host or cells: HEK293 cells (microsomes); conditions: CYP17-HEK293 microsomes, 20 minutes at room temperature; read-out: CYP17 lyase IC50
T1 sequence (P05093 1-508): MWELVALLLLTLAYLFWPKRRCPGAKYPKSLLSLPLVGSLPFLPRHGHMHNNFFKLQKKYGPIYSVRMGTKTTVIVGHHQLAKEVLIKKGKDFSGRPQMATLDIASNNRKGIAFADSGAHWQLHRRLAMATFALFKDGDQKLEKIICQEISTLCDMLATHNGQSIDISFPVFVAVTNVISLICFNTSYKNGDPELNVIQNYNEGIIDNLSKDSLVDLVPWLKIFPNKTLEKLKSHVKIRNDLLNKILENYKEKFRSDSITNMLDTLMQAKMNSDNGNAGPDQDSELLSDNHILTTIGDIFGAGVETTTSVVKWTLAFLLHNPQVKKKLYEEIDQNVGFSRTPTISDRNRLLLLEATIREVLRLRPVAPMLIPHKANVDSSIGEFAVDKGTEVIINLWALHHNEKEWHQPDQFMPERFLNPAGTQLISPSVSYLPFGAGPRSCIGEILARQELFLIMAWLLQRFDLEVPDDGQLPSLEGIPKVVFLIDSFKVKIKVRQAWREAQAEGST
Experimental: Human CYP17 was expressed in HEK293 cells and microsome were prepared, which was subsequently used as a source of enzyme for lyase assays. The reaction includes 200 nM [3H]-hydroxy pregnenolone (ARC), 200 nM 17-hydroxy pregnenolone (Sigma), 2 mM NADPH (Calbiochem), and CYP 17-HEK293 microsomes, which were incubated for 20 minutes at room temperature in the presence of DMSO or a test compound. Compounds were dissolved in DMSO and serially diluted. The reaction was stopped by the addition of 0.2N HCl and the product was captured using an anti-mouse YSi SPA Bead (GE) conjugated anti-DHEA monoclonal antibody (Abcam). The signal intensity determined by Packard Top Count was used to calculate the percent inhibition and IC50 values.

Human CYP17 [3] = target: T1, Human CYP17; test: CYP17 hydroxylase assay; type: biochemical; set-up: made in house; host or cells: E. coli (membrane preparation); conditions: hCYP17 E. coli membrane, 25 μM pregnenolone, 37° C. 120 minutes; read-out: CYP17 hydroxylase IC50
Experimental: E. coli was transformed to express active human CYP17, and a membrane prepared from the transformed E. coli was used as a source of the enzyme. […] The reaction mixture was incubated at 37° C. for 120 minutes and 200 μL of 0.02 N HCl in acetonitrile was added to stop the reaction. The sample was then spun at […] and 200 μL of the supernatant was transferred to a clean tube for determination. The reaction product 17-alpha pregnenolone was measured by LC/MS.

[4] = system: PSA protein secretion, LNcaP cells; test: Inhibition of cellular PSA protein secretion; type: cell-based; conditions: Homo sapiens, 1 nM DHT, 48 hours, ELISA, read-out: Inhibition of PSA proteins, IC50
Experimental: Experimental steps: 1. The original culture medium was replaced with culture medium containing 10% Charcoal Stripped FBS, and cells were allowed to starve in culture flasks for 24 hours; 2. Cells were digested and counted, and LNcaP cells were seeded into 96-well plates at 10,000 cells/well and incubated overnight; 3. The DHT and compound were added to the existing medium at a set concentration, the final concentration of DHT was 1 nM, the initial concentration of the compound was 50000 nM, 5-fold dilution was carried out, 8 concentration gradients were obtained, and incubation was carried out for 48 hours; 4. Cell culture supernatants were collected and PSA protein levels were measured according to the ELISA kit instructions. IC50 was calculated using GraphPad Prism based on the inhibition rate at each concentration, and the results were shown in Table 2 below.

[5] = human liver microsomes, pH 7.4, 1 μM compound, 0.5 mg/mL protein

| Compound | clearance compared to the non-deuterated compound ([1]; in words) | half-life compared to the non-deuterated compound ([1]; in words) | half-life at 1 μM [1, 5] | microsomal CLint at 1 μM [1, 5] | pIC50 (Human CYP17 [2]) | pIC50 (Human CYP17 [3]) | pIC50 [4] |
| --- | --- | --- | --- | --- | --- | --- | --- |
| [2H]c1ccc(C2=CCC3C4CCC5=CC(=O)CC[C@]5(C)C4CC[C@]23C)cn1 (stereo partly drawn) [Example 12, (3β)-17-(3-pyridyl-6-d)androst-4,16-dien-3-one] | reduced | prolonged | 3.4 min | 408 µL/min/mg | > 8.00 | > 7.70 | > 8.00 |
| [2H]c1cncc(C2=CCC3C4CCC5=CC(=O)CC[C@]5(C)C4CC[C@]23C)c1 (stereo partly drawn) [Example 11, (3β)-17-(3-pyridyl-5-d)androst-4,16-dien-3-one] |  |  |  |  | > 8.00 | > 7.70 | > 8.00 |

Source: patent US10519193B2, “Steroidal compound, composition containing the same and use thereof” (Shenzhen TargetRx, Inc., priority 2016, dated 2019)
